# From US7553867B2, “Furan or thiophene derivative and medicinal use thereof” (Takeda Pharmaceutical Company Limited, priority 2002, dated 2009)
# pEC50: −log10 of the molar value.
# Assays:
# PPARα-RXRα heterodimer = molecular target: T1, PPARα-RXRα heterodimer (Homo sapiens, UniProt Q07869); test: PPARα-RXRα heterodimer ligand activity (luciferase reporter, transfected COS-1 cells); type: cell-based; conditions: luciferase activity at 10 nM compound relative to control without compound as 1
# T1 construct: expressed in transfected cells; host or cells: COS-1 (transient; pMCMVneo-hPPARα + pMCMVneo-hRXRα)
# T1 sequence (Q07869 1-468): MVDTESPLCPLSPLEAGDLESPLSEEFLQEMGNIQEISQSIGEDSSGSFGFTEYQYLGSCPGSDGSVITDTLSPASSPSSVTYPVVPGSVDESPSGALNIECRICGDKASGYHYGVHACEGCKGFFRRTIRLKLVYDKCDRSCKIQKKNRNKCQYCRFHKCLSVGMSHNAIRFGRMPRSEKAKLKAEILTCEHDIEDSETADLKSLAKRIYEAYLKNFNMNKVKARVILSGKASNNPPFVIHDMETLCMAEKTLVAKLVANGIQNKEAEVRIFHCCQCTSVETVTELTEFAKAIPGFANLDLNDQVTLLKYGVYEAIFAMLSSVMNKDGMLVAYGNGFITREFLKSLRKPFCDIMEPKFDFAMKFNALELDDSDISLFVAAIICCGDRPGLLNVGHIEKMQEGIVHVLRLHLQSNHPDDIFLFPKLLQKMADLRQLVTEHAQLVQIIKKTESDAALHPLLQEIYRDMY
# T1 sequence (P19793 1-462 partner): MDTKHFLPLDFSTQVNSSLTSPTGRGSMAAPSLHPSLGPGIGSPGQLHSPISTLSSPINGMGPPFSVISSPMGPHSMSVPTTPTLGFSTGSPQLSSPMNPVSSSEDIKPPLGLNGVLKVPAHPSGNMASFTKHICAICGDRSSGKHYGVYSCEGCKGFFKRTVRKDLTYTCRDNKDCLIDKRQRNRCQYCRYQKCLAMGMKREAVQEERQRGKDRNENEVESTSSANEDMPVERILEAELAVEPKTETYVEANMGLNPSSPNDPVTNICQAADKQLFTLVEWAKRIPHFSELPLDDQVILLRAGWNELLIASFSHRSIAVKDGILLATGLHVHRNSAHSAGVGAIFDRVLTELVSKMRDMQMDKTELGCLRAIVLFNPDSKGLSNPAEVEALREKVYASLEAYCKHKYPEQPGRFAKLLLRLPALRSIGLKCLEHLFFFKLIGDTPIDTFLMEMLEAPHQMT
# Experimental: (§1) At 18 to 24 hours after transfection carried out in Reference Example 12a, COS-1 cells were collected, suspended in DMEM medium [manufactured by Life Technologies, Inc., USA] containing 0.1% BSA (fatty acid-free) (produced by Waco Pure Chemicals Industries, Ltd.), and inoculated to each well of a 96-well white plate (produced by Corning, USA) at 1×10^4 cells/well in 80 μl. Subsequently, 20 μl of a test compound was added, and the plate was incubated at 37° C. in a carbon dioxide gas incubator for 36 to 48 hours. After removal of the medium from the 96-well white plate, 40 μl of PicaGene LT 7.5 (produced by Waco Pure Chemicals Industries, Ltd.) diluted twofold with HBSS (HANKS' BALANCED SALT SOLUTION) (produced by BIO WHITTAKER) was added, and after stirring, the luciferase activity was determined using 1420 ARVO Multilabel Counter [produced by Wallac].
# The fold induction was calculated from the luciferase activity for the well to which 10 nM of the compound is added, relative to the luciferase activity of a control to which the compound is not added as 1. Results are shown in [Table 3].
# (§2) A COS-1 cell was inoculated in a cell culture flask (produced by Corning, USA) of 150 cm^2 at 5×10^6 cells/50 ml, and incubated under the conditions of 37° C. and 5% CO2 for 24 hours. Transfection was carried out with lipofectamine (produced by Invitrogen, USA). A transfection mixture solution was prepared by mixing 125 μl of lipofectamine, 100 μl of PLUS Reagent, 2.5 μg of pMCMVneo-hPPARα (obtained in Reference Example 11a), 2.5 μg of pMCMVneo-hRXRα (obtained in Reference Example 4a), 5 μg of reporter plasmid pGL3-4ERPP-TK neo (obtained in Reference Example 5a) and 5 μg of pRL-tk [produced by Promega, USA] with 5 ml of opti-MEM (produced by Invitrogen, USA). To COS-1 cell washed with opti-MEM, the above-mentioned transfection mixture solution and 20 ml of opti-MEM were added, and then incubated under the conditions of 37° C. and 5% CO2 for 3 hours. Then, 25 ml of DMEM medium [manufactured by Life Technologies, Inc., USA] containing 0.1% fatty acid-free bovine serum albumin (BSA) (produced by Waco Pure Chemicals Industries, Ltd.) was added thereto, and then incubated under the conditions of 37° C. and 5% CO2 for 18 to 24 hours.
# PPARδ-RXRα heterodimer = molecular target: T2, PPARδ-RXRα heterodimer (Homo sapiens, UniProt Q03181); test: PPARδ-RXRα heterodimer ligand activity (luciferase reporter, transfected COS-1 cells); type: cell-based; conditions: luciferase activity at 10 nM test compound relative to non-administration group as 1
# T2 construct: expressed in transfected cells; host or cells: COS-1 (transient; pMCMVneo-hPPARδ + pMCMVneo-hRXRα)
# T2 sequence (Q03181 1-441): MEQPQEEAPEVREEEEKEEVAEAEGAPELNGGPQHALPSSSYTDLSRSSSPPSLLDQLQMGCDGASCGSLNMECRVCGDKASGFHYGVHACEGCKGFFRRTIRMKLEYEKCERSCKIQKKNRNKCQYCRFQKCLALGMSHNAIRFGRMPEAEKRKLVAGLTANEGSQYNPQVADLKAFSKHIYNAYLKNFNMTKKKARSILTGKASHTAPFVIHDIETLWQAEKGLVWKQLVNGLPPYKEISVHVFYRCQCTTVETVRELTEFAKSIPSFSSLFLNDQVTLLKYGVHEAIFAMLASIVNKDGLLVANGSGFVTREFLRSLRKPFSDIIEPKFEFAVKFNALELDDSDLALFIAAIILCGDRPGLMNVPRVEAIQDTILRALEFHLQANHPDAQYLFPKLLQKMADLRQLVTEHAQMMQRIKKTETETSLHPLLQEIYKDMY
# T2 sequence (P19793 1-462 partner): T1 sequence (P19793 1-462 partner)
# Experimental: as §1, with “Example 9a,” for “Example 12a,”, “0.1% fatty acid-free bovine serum albumin (BSA)” for “0.1% BSA (fatty acid-free)”, “incubated under the conditions of” for “incubated at”, “C. and 5% CO2” for “C. in a carbon dioxide gas incubator”, “of PicaGene.” for “of PicaGene”
# The fold induction was calculated from the luciferase activity for addition of each 10 nM of the test compound relative to the luciferase activity of the test compound non-administration group as 1. Results are shown in [Table 2].
# as §2, with “ml, and the plate was incubated under” for “ml, and incubated under”, “μg of pMCMVneo-hPPARδ (obtained in” for “μg of pMCMVneo-hPPARα (obtained in”, “Reference Example 3a), 2.5 μg” for “Reference Example 11a), 2.5 μg”, “USA). To the COS-1 cell” for “USA). To COS-1 cell”
# human GPR40 = molecular target: T3, human GPR40 (Homo sapiens, UniProt O14842); test: Receptor function regulating action (agonist action) for GPR40, intracellular calcium by FLIPR in CHO cells; type: cell-based; conditions: CHO cells expressing human GPR40; change of fluorescence intensity at 30 seconds after reaction initiation
# T3 construct: expressed in transfected cells; host or cells: CHO cell strain (No. 104)
# Experimental: CHO cell strain (No. 104) which have had expressed human GPR40 was diluted to contain 3×10^4 cells/100 μL, and added to a Black walled 96-well plate (Costar) at 100 μL/well, and incubated overnight in CO2 incubator. Change of intracellular calcium concentration was measured with FLIPR (Molecular Device). The method is as follows. 50 μg of Fluo-3AM (DOJIN) was dissolved in 21 μL of DMSO (DOJIN), and the same amount of 20% pluronic acid (Molecular Probes) was further added thereto, and the mixture was mixed. The mixture was added to 10.6 mL of an assay buffer [prepared by adding 10 mL of solution which was produced by adding 20 mL of 1 M HEPES (pH 7.4) (DOJIN) to 1 L of HBSS (Invitrogen), dissolving 710 mg of probenecid (Sigma) in 5 mL of 1N NaOH, and further adding 5 mL of the above-mentioned HBSS/HEPES solution thereto and mixing it.] containing 105 μL of fetal bovine serum, to give a fluorescent dye solution. The medium of the cell plate was removed, and immediately, the fluorescent dye solution was added at 100 μL/well, and incubated in CO2 incubator for 1 hour, allowing the fluorescent dye to be incorporated into the cells. The cells after incubation were washed with the above-mentioned assay buffer. The compound to be added to the cells was diluted with the assay buffer to each concentration, added to the plate for the test sample. After conducting the above-mentioned pretreatment, intracellular calcium concentration change after adding the compound was measured in FLIPR to investigate the agonist action. By dose-response curve with the change of fluorescence intensity value at 30 seconds after reaction initiation, EC50 value was calculated.
# T3 sequence (O14842 whole entry): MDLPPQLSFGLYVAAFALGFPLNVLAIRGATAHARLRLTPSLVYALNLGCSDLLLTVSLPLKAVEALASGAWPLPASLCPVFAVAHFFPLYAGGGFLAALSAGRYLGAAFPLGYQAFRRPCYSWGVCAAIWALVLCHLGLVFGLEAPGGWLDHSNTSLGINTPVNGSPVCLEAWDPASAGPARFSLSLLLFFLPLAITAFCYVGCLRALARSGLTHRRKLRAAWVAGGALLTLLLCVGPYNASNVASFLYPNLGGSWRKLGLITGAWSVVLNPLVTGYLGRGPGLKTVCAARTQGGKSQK
fold induction at 0.01 µM (PPARα-RXRα heterodimer),fold induction at 0.01 µM (PPARδ-RXRα heterodimer),melting point,pEC50 (human GPR40),Compound
9.3,–,–,–,"Cc1oc(-c2ccc(F)cc2)cc1COc1cccc(CSC(C)(C)C(=O)O)c1 [Example 6, 2-[(3-{[5-(4-Fluorophenyl)-2-methyl-3-furyl]methoxy}benzyl)thio]-2-methylpropionic acid]"
9.2,–,–,–,"Cc1oc(-c2ccc(C(F)(F)F)cc2)cc1COc1cccc(CSCC(=O)O)c1 [Example 6(2), {[3-({2-Methyl-5-[4-(trifluoromethyl)phenyl]-3-furyl}methoxy)benzyl]thio}acetic acid]"
–,6.7,95 to 97 °C,–,"CCc1oc(-c2ccc(C(F)(F)F)cc2)cc1COc1ccc(CCC(=O)O)c(C)c1 [Example 5(9), 3-[4-({2-Ethyl-5-[4-(trifluoromethyl)phenyl]-3-furyl}methoxy)-2-methylphenyl]propionic acid]"
–,5.6,113 to 114 °C,–,"CCc1oc(-c2ccc(C(F)(F)F)cc2)cc1CCCOc1cccc(CC(=O)O)c1 [Example 6(26), [3-(3-{2-Ethyl-5-[4-(trifluoromethyl)phenyl]-3-furyl}propoxy)phenyl]acetic acid]"
10.9,–,–,–,"CC(C)c1oc(-c2ccc(C(F)(F)F)cc2)cc1C(=O)Nc1cccc(CSCC(=O)O)c1 [Example 2(1), {[3-({2-Isopropyl-5-[4-(trifluoromethyl)phenyl]-3-furoyl}amino)benzyl]thio}acetic acid]"
–,6.6,159 to 160 °C,6.80,"COc1cc(OCc2cc(-c3ccc(C(F)(F)F)cc3)oc2C)ccc1CCC(=O)O [Example 6(6), 3-[2-Methoxy-4-({2-methyl-5-[4-(trifluoromethyl)phenyl]-3-furyl}methoxy)phenyl]propionic acid]"
10.2,–,–,–,"Cc1oc(-c2ccc(F)cc2)cc1C(=O)Nc1cccc(CSCC(=O)O)c1 [Example 1, [(3{[5-(4-Fluorophenyl)-2-methyl-3-furoyl]amino}benzyl)thio]acetic acid]"
8.9,–,120 to 122 °C,–,"Cc1oc(-c2ccc(F)cc2)cc1COc1cccc(CSCC(=O)O)c1 [Example 6(1), [(3-{[5-(4-Fluorophenyl)-2-methyl-3-furyl]methoxy}benzyl)thio]acetic acid]"
–,7.4,140 to 141 °C,6.74,"Cc1cc(OCc2cc(-c3ccc(C(F)(F)F)cc3)oc2C)ccc1CCC(=O)O [Example 6(4), 3-[2-Methyl-4-({2-methyl-5-[4-(trifluoromethyl)phenyl]-3-furyl}methoxy)phenyl]propionic acid]"
10.1,–,–,–,CCc1oc(-c2ccc(C(F)(F)F)cc2)cc1COc1cccc(CSCC(=O)O)c1 [Example 5(5)]
–,6.8,125 to 126 °C,–,"Cc1cc(OCCCc2cc(-c3ccc(C(F)(F)F)cc3)oc2C)ccc1CCC(=O)O [Example 6(24), 3-[2-Methyl-4-(3-{2-methyl-5-[4-(trifluoromethyl)phenyl]-3-furyl}propoxy)phenyl]propionic acid]"
